Source: patent US9686984B2, “Macrocyclic picolinamides as fungicides” (DOW AGROSCIENCES LLC, priority 2014, dated 2017)
Where two headings read alike, the source gives them in different places.

Key:
Zymoseptoria tritici = test: Leaf Blotch of Wheat (SEPTTR) disease control on wheat seedlings; type: in vivo; conditions: Low Volume (121.5 g/H)
Method: Example A: Evaluation of Fungicidal Activity: Leaf Blotch of Wheat (Mycosphaerella graminicola; Anamorph: Zymoseptoria tritici; Bayer code […]) Technical grades of materials were dissolved in acetone, which were then mixed with nine volumes of water containing 110 ppm Triton X-100. The fungicide solutions were applied onto wheat seedlings using an automated booth sprayer to run-off. All sprayed plants were allowed to air dry prior to further handling. All fungicides were evaluated using the aforementioned method for their activity vs. all target diseases, unless stated otherwise. Wheat leaf blotch and brown rust activity were also evaluated using track spray applications, in which case the fungicides were formulated as EC formulations, containing 0.1% Trycol 5941 in the spray solutions. Wheat plants (variety Yuma) were grown from seed in a greenhouse in 50% mineral soil/50% soil-less Metro mix until the first leaf was fully emerged, with 7-10 seedlings per pot. These plants were inoculated with an aqueous spore suspension of Septoria tritici either prior to or after fungicide treatments. After inoculation the plants were kept in 100% relative humidity (one day in a dark dew chamber followed by two to three days in a lighted dew chamber at 20° C.) to permit spores to germinate and infect the leaf. The plants were then transferred to a greenhouse set at 20° C. for disease to develop. When disease symptoms were fully expressed on the 1st leaves of untreated plants, infection levels were assessed on a scale of 0 to 100 percent disease severity. Percent disease control was calculated using the ratio of disease severity on treated plants relative to untreated plants.

Puccinia triticina = test: Wheat Brown Rust (PUCCRT) disease control on wheat seedlings; type: in vivo; conditions: Low Volume (121.5 g/H)
Method: Technical grades of materials were dissolved in acetone, which were then mixed with nine volumes of water containing 110 ppm Triton X-100. The fungicide solutions were applied onto wheat seedlings using an automated booth sprayer to run-off. All sprayed plants were allowed to air dry prior to further handling. All fungicides were evaluated using the aforementioned method for their activity vs. all target diseases, unless stated otherwise. Wheat leaf blotch and brown rust activity were also evaluated using track spray applications, in which case the fungicides were formulated as EC formulations, containing 0.1% Trycol 5941 in the spray solutions. Wheat plants (variety Yuma) were grown from seed in a greenhouse in 50% mineral soil/50% soil-less Metro mix until the first leaf was fully emerged, with 7-10 seedlings per pot. These plants were inoculated with an aqueous spore suspension of Septoria tritici either prior to or after fungicide treatments. After inoculation the plants were kept in 100% relative humidity (one day in a dark dew chamber followed by two to three days in a lighted dew chamber at 20° C.) to permit spores to germinate and infect the leaf. The plants were then transferred to a greenhouse set at 20° C. for disease to develop. When disease symptoms were fully expressed on the 1st leaves of untreated plants, infection levels were assessed on a scale of 0 to 100 percent disease severity. Percent disease control was calculated using the ratio of disease severity on treated plants relative to untreated plants. Example B: Evaluation of Fungicidal Activity: Wheat Brown Rust (Puccinia triticina; Synonym: Puccinia recondita f. sp. tritici; Bayer code PUCCRT) Wheat plants (variety Yuma) were grown from seed in a greenhouse in 50% mineral soil/50% soil-less Metro mix until the first leaf was fully emerged, with 7-10 seedlings per pot. These plants were inoculated with an aqueous spore suspension of Puccinia triticina either prior to or after fungicide treatments. After inoculation the plants were kept in a dark dew room at 22° C. with 100% relative humidity overnight to permit spores to germinate and infect the leaf. The plants were then transferred to a greenhouse set at 24° C. for disease to develop. Fungicide formulation, application and disease assessment followed the procedures as described in the Example A.

[1] = 24 h, 1 Day Protectant, read-out: SEPTTR disease control, 1 DP
[2] = 72 h, 3 Day Curative, read-out: SEPTTR disease control, 3 DC
[3] = 24 h, 1 Day Protectant, read-out: PUCCRT disease control, 1 DP
[4] = 72 h, 3 Day Curative, read-out: PUCCRT disease control, 3 DC

Row | SMILES | pest or weed control at 121.5 g/ha (Zymoseptoria tritici; [1]) [%] | pest or weed control at 121.5 g/ha (Zymoseptoria tritici; [2]) [%] | pest or weed control at 121.5 g/ha (Puccinia triticina; [3]) [%] | pest or weed control at 121.5 g/ha (Puccinia triticina; [4]) [%]
1 | COc1ccnc(C(=O)N[C@H]2CCOC[C@@H](Cc3ccccc3)[C@H](C)OC2=O)c1OC(C)=O [Compound 1] | > 70 | > 70 | > 70 | > 70
2 | COCC[C@H]1OCC[C@H](NC(=O)c2nccc(OC)c2OC(C)=O)C(=O)O[C@@H](C)[C@@H]1Cc1ccccc1 [Compound 4] | > 70 | > 70 | > 70 | > 70
3 | COc1ccnc(C(=O)N[C@H]2CCOC[C@@H](Cc3ccc(F)cc3)[C@H](C)OC2=O)c1OC(C)=O [Compound 5] | > 70 | < 70 | > 70 | > 70
4 | CCCC[C@H]1OCC[C@H](NC(=O)c2nccc(OC)c2OC(C)=O)C(=O)O[C@@H](C)[C@@H]1Cc1ccc(F)cc1 [Compound 6] | > 70 | > 70 | > 70 | > 70
5 | COc1ccnc(C(=O)N[C@H]2CCO[C@H](CCc3ccccc3)[C@@H](Cc3ccc(F)cc3)[C@H](C)OC2=O)c1OC(C)=O [Compound 7, 2-(((2R,3S,4S,7S)-3-(4-fluorobenzyl)-4-methyl-6-oxo-2-phenethyl-1,5-dioxonan-7-yl)carbamoyl)-4-methoxypyridin-3-yl acetate] | > 70 | > 70 | > 70 | > 70
6 | COCC[C@H]1OCC[C@H](NC(=O)c2nccc(OC)c2OC(C)=O)C(=O)O[C@@H](C)[C@@H]1Cc1ccc(F)cc1 [Compound 8] | > 70 | < 70 | > 70 | > 70
7 | COc1ccnc(C(=O)N[C@H]2CCO[C@H](CCc3ccccc3)[C@@H](CCC(C)C)[C@H](C)OC2=O)c1OC(C)=O [Compound 9] | > 70 | > 70 | > 70 | > 70
8 | COc1ccnc(C(=O)N[C@H]2CCO[C@H](CCc3ccc(F)cc3)[C@@H](CCC(C)C)[C@H](C)OC2=O)c1OC(C)=O [Compound 10] | > 70 | > 70 | > 70 | > 70
9 | COc1ccnc(C(=O)N[C@H]2CCOC[C@@H](Cc3ccccc3-c3ccccc3)[C@H](C)OC2=O)c1OC(C)=O [Compound 11] | > 70 | < 70 | > 70 | > 70
10 | COc1ccnc(C(=O)N[C@H]2CCO[C@H](Cc3ccccc3)[C@@H](CCC(C)C)[C@H](C)OC2=O)c1OC(C)=O [Compound 12] | > 70 | > 70 | > 70 | > 70
11 | CCCC[C@H]1[C@H](C)OC(=O)[C@@H](NC(=O)c2nccc(OC)c2OC(C)=O)CCO[C@@H]1CCc1ccccc1 [Compound 13] | > 70 | > 70 | > 70 | > 70
12 | CCCC[C@H]1[C@H](C)OC(=O)[C@@H](NC(=O)c2nccc(OC)c2OC(C)=O)CCO[C@@H]1CC [Compound 14] | > 70 | < 70 | > 70 | > 70
13 | CCCC[C@H]1[C@H](C)OC(=O)[C@@H](NC(=O)c2nccc(OC)c2OC(C)=O)CCO[C@@H]1COc1ccccc1 [Compound 15] | > 70 | > 70 | > 70 | > 70
